The record followed here is patent US11739074B2, “Ras inhibitors” (Revolution Medicines, Inc., priority 2019, dated 2023).

Some results are limits rather than exact numbers.

The subject of one experiment is AsPC-1 (K-Ras G12D). Description: CellTiter-Glo cell viability assay, AsPC-1. The class given is cell-based. The settings on record: Homo sapiens, ASPC1, 120 h, AsPC-1, K-Ras G12D, 5-day treatment; read-out: AsPC-1 Cell Viability IC50. The protocol: Determination of Cell Viability in RAS Mutant Cancer Cell Lines
Protocol: CellTiter-Glo® Cell Viability Assay
Note—The following protocol describes a procedure for monitoring cell viability of K-Ras mutant cancer cell lines in response to a compound of the invention. Other RAS isoforms may be employed, though the number of cells to be seeded will vary based on cell line used.
Test compounds (132.5 nL) were directly dispensed into the assay plates containing cells. […] On day 5, assay plates and their contents were equilibrated to room temperature for approximately 30 minutes. […] Luminescence was measured using the PerkinElmer Enspire. Data were normalized by the following: (Sample signal/Avg. DMSO)*100. The data were fit using a four-parameter logistic fit.
(ATP-based viability assays read luminescence as a measure of living cells.)
On to `CCn1c(-c2cnccc2COC)c2c3cc(ccc31)-c1cccc(c1)C[C@H](NC(=O)[C@H](C(C)C)N(C)C(=O)CCN=C=Nc1ccc(OC)cc1)C(=O)N1CCC[C@H](N1)C(=O)OCC(C)(C)C2` [15 A and B], for which the IC50 is more than 10 µM.

Regarding `CCn1c(-c2cnccc2COC)c2c3cc(ccc31)-c1cc(O)cc(c1)C[C@H](NC(=O)[C@H](C(C)C)N(C)C(=O)c1ccc(NC(=O)[C@H]3CN3)cn1)C(=O)N1CCC[C@H](N1)C(=O)OCC(C)(C)C2` [47 A and B], the IC50 is more than 10 µM.

As to `CCn1c(-c2cnccc2COC)c2c3cc(ccc31)-c1cccc(c1)C[C@H](NC(=O)[C@H](C(C)C)N(C)C(=O)CCN=C=NCc1ccc(OC)cc1OC)C(=O)N1CCC[C@H](N1)C(=O)OCC(C)(C)C2` [61 A and B], the IC50 lay in the range of 1 to 10 µM.

Turning to `CCn1c(-c2cnccc2COC)c2c3cc(ccc31)-c1cccc(c1)C[C@H](NC(=O)[C@H](C(C)C)N(C)C(=O)CC1(N=C=Nc3ccc(OC)cc3)CC1)C(=O)N1CCC[C@H](N1)C(=O)OCC(C)(C)C2` [65 A and B], the IC50 lay within 1 to 10 µM.

On to `CCn1c(-c2cnccc2COC)c2c3cc(ccc31)-c1cccc(c1)C[C@H](NC(=O)[C@H](C(C)C)N(C)C(=O)CCN=C=NCc1ccccc1C)C(=O)N1CCC[C@H](N1)C(=O)OCC(C)(C)C2` [82 A and B], for which the IC50 was in the range of 1 to 10 µM.

For the molecule `CCn1c(-c2cccnc2[C@H](C)OC)c2c3cc(ccc31)-c1cccc(c1)C[C@H](NC(=O)[C@H](C(C)C)N(C)C(=O)CCN=C=NCc1ccccc1OC)C(=O)N1CCC[C@H](N1)C(=O)OCC(C)(C)C2` [Compound 73], the IC50 was 1 to 10 µM.

With `CCn1c(-c2cccnc2[C@H](C)OC)c2c3cc(ccc31)-c1cccc(c1)C[C@H](NC(=O)[C@H](C(C)C)N(C)C(=O)[C@H]1CC[C@H](N=C=NCc3ccccc3OC)C1)C(=O)N1CCC[C@H](N1)C(=O)OCC(C)(C)C2` [Compound 76], the IC50 was 1 to 10 µM.

In the case of `CCn1c(-c2cnccc2COC)c2c3cc(ccc31)-c1cccc(c1)C[C@H](NC(=O)[C@H](C(C)C)N1CC[C@@H](CN=C=NCCOC)C1)C(=O)N1CCC[C@H](N1)C(=O)OCC(C)(C)C2` [Compound 80], the IC50 is 1 to 10 µM.

For the molecule `CCn1c(-c2cnccc2COC)c2c3cc(ccc31)-c1cc(O)cc(c1)C[C@H](NC(=O)[C@H](C(C)C)N(C)C(=O)CN1C(=O)[C@H]3N[C@H]3C1=O)C(=O)N1CCC[C@H](N1)C(=O)OCC(C)(C)C2` [Compound 98], the IC50 is more than 10 µM.

On to `CCn1c(-c2cccnc2[C@H](C)OC)c2c3cc(ccc31)-c1cc(O)cc(c1)C[C@H](NC(=O)[C@H](C(C)C)N1CCC3(CN(C(=O)[C@@H]4CN4)C3)C1=O)C(=O)N1CCC[C@H](N1)C(=O)OCC(C)(C)C2` [Compound 109], for which the IC50 was more than 10 µM.

Regarding `CCn1c(-c2cccnc2[C@H](C)OC)c2c3cc(ccc31)-c1cc(O)cc(c1)C[C@H](NC(=O)[C@H](C(C)C)N1CCC3(CN(C(=O)[C@H]4CN4)C3)C1=O)C(=O)N1CCC[C@H](N1)C(=O)OCC(C)(C)C2` [Compound 115], the IC50 was more than 10 µM.

On to `CCn1c(-c2cccnc2[C@H](C)OC)c2c3cc(ccc31)-c1cccc(c1)C[C@H](NC(=O)[C@H](C(C)C)N(C)C(=O)[C@H]1C[C@H](N=C=Nc3c(C)cccc3C)C1)C(=O)N1CCC[C@H](N1)C(=O)OCC(C)(C)C2` [Compound 126], for which the concentration for half-maximal inhibition (IC50) is more than 10 µM.

On to `CCn1c(-c2cccnc2[C@H](C)OC)c2c3cc(ccc31)-c1cc(O)cc(c1)C[C@H](NC(=O)[C@H](C(C)C)N1CC[C@@]3(CCN(C(=O)[C@@H]4N[C@@H]4C4CC4)C3)C1=O)C(=O)N1CCC[C@H](N1)C(=O)OCC(C)(C)C2` [Compound 128], for which the IC50 lay within 1 to 10 µM.

Take `CCn1c(-c2cccnc2[C@H](C)OC)c2c3cc(ccc31)-c1cc(O)cc(c1)C[C@H](NC(=O)[C@H](C(C)C)N1CC[C@@H](NC(=O)[C@H]3CN3)C1=O)C(=O)N1CCC[C@H](N1)C(=O)OCC(C)(C)C2` [Compound 130]: the IC50 was more than 10 µM.

In the case of `CCn1c(-c2cccnc2[C@H](C)OC)c2c3cc(ccc31)-c1cc(O)cc(c1)C[C@H](NC(=O)[C@H](C(C)C)N(C)C(=O)c1ccc([C@@H]3CN3)cc1)C(=O)N1CCC[C@H](N1)C(=O)OCC(C)(C)C2` [Compound 131], the IC50 is more than 10 µM.

Regarding `CCn1c(-c2cccnc2[C@H](C)OC)c2c3cc(ccc31)-c1cc(O)cc(c1)C[C@H](NC(=O)[C@H](C(C)C)N(C)C(=O)N1CCN(C(=O)[C@H]3CN3)C(=O)C1)C(=O)N1CCC[C@H](N1)C(=O)OCC(C)(C)C2` [Compound 143], the IC50 is more than 10 µM.

Consider `CCn1c(-c2cccnc2[C@H](C)OC)c2c3cc(ccc31)-c1cc(O)cc(c1)C[C@H](NC(=O)[C@H](C(C)C)N(C)C(=O)c1ccc([C@H]3CN3)cc1)C(=O)N1CCC[C@H](N1)C(=O)OCC(C)(C)C2` [Compound 145], for which the IC50 is more than 10 µM.

With `CCn1c(-c2cccnc2[C@H](C)OC)c2c3cc(ccc31)-c1cc(O)cc(c1)C[C@H](NC(=O)[C@H](C(C)C)N(C)C(=O)C1CC3(C1)CN(C(=O)[C@@H]1CN1)C3)C(=O)N1CCC[C@H](N1)C(=O)OCC(C)(C)C2` [Compound 180], the IC50 is more than 10 µM.

Take `CCn1c(-c2cccnc2[C@H](C)OC)c2c3cc(ccc31)-c1cc(O)cc(c1)C[C@H](NC(=O)[C@H](C(C)C)N(C)C(=O)N1CC(NC(=O)[C@@H]3CN3)C1)C(=O)N1CCC[C@H](N1)C(=O)OCC(C)(C)C2` [Compound 188]: the IC50 is more than 10 µM.

On to `CCn1c(-c2cccnc2[C@H](C)OC)c2c3cc(ccc31)-c1cc(O)cc(c1)C[C@H](NC(=O)[C@H](C(C)C)N(C)C(=O)N1CC(NC(=O)[C@H]3CN3)C1)C(=O)N1CCC[C@H](N1)C(=O)OCC(C)(C)C2` [Compound 189], for which the IC50 was more than 10 µM.

`CCn1c(-c2cccnc2[C@H](C)OC)c2c3cc(ccc31)-c1cc(O)cc(c1)C[C@H](NC(=O)[C@H](C(C)C)N(C)C(=O)N1CCN(C(=O)[C@@H]3CN3)C(=O)C1)C(=O)N1CCC[C@H](N1)C(=O)OCC(C)(C)C2` [Compound 194]: the IC50 was more than 10 µM.

Consider `CCn1c(-c2cccnc2[C@H](C)OC)c2c3cc(ccc31)-c1cc(O)cc(c1)C[C@H](NC(=O)[C@H](C(C)C)N(C)C(=O)N(C)C1CN(C(=O)[C@H]3CN3)C1)C(=O)N1CCC[C@H](N1)C(=O)OCC(C)(C)C2` [Compound 203], for which the IC50 is more than 10 µM.

Turning to `CCn1c(-c2cccnc2[C@H](C)OC)c2c3cc(ccc31)-c1cc(O)cc(c1)C[C@H](NC(=O)[C@H](C(C)C)N(C)C(=O)[C@H]1CCN(C(=O)[C@H]3CN3)[C@H]1C)C(=O)N1CCC[C@H](N1)C(=O)OCC(C)(C)C2` [Compound 206], the IC50 is more than 10 µM.

For the molecule `CCn1c(-c2cccnc2[C@H](C)OC)c2c3cc(ccc31)-c1cc(O)cc(c1)C[C@H](NC(=O)[C@@H](COC1CCN(C(=O)[C@H]3CN3)CC1)C(C)C)C(=O)N1CCC[C@H](N1)C(=O)OCC(C)(C)C2` [Compound 211], the IC50 was more than 10 µM.

As to `CCn1c(-c2cccnc2[C@H](C)OC)c2c3cc(ccc31)-c1cc(O)cc(c1)C[C@H](NC(=O)[C@H](C(C)C)N(C)C(=O)c1nc(NC(=O)[C@H]3CN3)cs1)C(=O)N1CCC[C@H](N1)C(=O)OCC(C)(C)C2` [Compound 212], the IC50 is more than 10 µM.

For `CCn1c(-c2cccnc2[C@H](C)OC)c2c3cc(ccc31)-c1cc(O)cc(c1)C[C@H](NC(=O)[C@H](C(C)C)N1CC[C@H](NC(=O)[C@H]3CN3)C1=O)C(=O)N1CCC[C@H](N1)C(=O)OCC(C)(C)C2` [Compound 213], the IC50 is more than 10 µM.

Turning to `CCn1c(-c2cccnc2[C@H](C)OC)c2c3cc(ccc31)-c1csc(n1)C[C@H](NC(=O)[C@H](C(C)C)N(C)C(=O)N1CC[C@H]1CN(C)C(=O)[C@@H]1CN1)C(=O)N1CCC[C@H](N1)C(=O)OCC(C)(C)C2` [Compound 235], the IC50 is more than 10 µM.

In the case of `CCn1c(-c2cccnc2[C@H](C)OC)c2c3cc(ccc31)-c1cc(O)cc(c1)C[C@H](NC(=O)[C@H](C(C)C)N(C)C(=O)N1C[C@@H]3[C@H]1CCN3C(=O)[C@H]1CN1)C(=O)N1CCC[C@H](N1)C(=O)OCC(C)(C)C2` [Compound 250], the IC50 is more than 10 µM.

Consider `CCn1c(-c2cccnc2[C@H](C)OC)c2c3cc(ccc31)-c1cc(O)cc(c1)C[C@H](NC(=O)[C@H](C(C)C)N(C)C(=O)N1C[C@@H]3[C@H]1CCN3C(=O)[C@@H]1CN1)C(=O)N1CCC[C@H](N1)C(=O)OCC(C)(C)C2` [Compound 251], for which the IC50 is more than 10 µM.

Turning to `CCn1c(-c2cccnc2[C@H](C)OC)c2c3cc(ccc31)-c1cc(O)cc(c1)C[C@H](NC(=O)[C@H](C(C)C)N(C)C(=O)N1CC[C@@H](N(C)C(=O)[C@H]3CN3)C1)C(=O)N1CCC[C@H](N1)C(=O)OCC(C)(C)C2` [Compound 252], the IC50 was more than 10 µM.

With `CCn1c(-c2cccnc2[C@H](C)OC)c2c3cc(ccc31)-c1cc(O)cc(c1)C[C@H](NC(=O)[C@H](C(C)C)N(C)C(=O)N1CC[C@@H](N(C)C(=O)[C@@H]3CN3)C1)C(=O)N1CCC[C@H](N1)C(=O)OCC(C)(C)C2` [Compound 253], the IC50 was more than 10 µM.

`CCn1c(-c2cccnc2[C@H](C)OC)c2c3cc(ccc31)-c1cc(O)cc(c1)C[C@H](NC(=O)[C@@H](COC1CN(C(=O)[C@H]3CN3)C1)C(C)C)C(=O)N1CCC[C@H](N1)C(=O)OCC(C)(C)C2` [Compound 312]: the IC50 was more than 10 µM.

Staying with this experiment, now noted: Homo sapiens, ASPC1, 120 h, read-out: AsPC-1 Cell Viability IC50, AsPC-1, K-Ras G12D, 5-day treatment.
`CCn1c(-c2cccnc2[C@H](C)OC)c2c3cc(ccc31)-c1cc(O)cc(c1)C[C@H](NC(=O)[C@H](C(C)C)N(C)C(=O)CN(C)C(=O)[C@H]1N[C@@H]1C1CC1)C(=O)N1CCC[C@H](N1)C(=O)OCC(C)(C)C2` [Compound 135]: the IC50 was 0.1 to 1 µM.

A word on the IC50: it is the concentration at which inhibition is half-maximal.
